Experimental data taken from US20130195919A1, “INDUCED DENDRITIC CELL COMPOSITIONS AND USES THEREOF” (PRESIDENT AND FELLOWS OF HARVARD COLLEGE, priority 2010, published 2013).

Legend:
DC [1] = assay: DC maturation marker expression by FACS; assay type: cell-based, mouse; conditions: 100 μM, 6 hours
Method: DC were isolated and kept for 6 hours at 4 degrees (ctrlDC 4C) or culture to produce ctrlDC (37C), lpsDC itDC and it/lpsDC. Simultaneously cells were treated with the purinergic receptor agonists ATP (1 mM) and Bz-ATP (100 μM), purinergic receptors antagonists oxidized ATP (oATP, 100 μM) and suranim (100 μM), the adenosine monophosphate kinase (AMPK) stimulator AICAR (100 μM) and the enzyme Apyrase (200 U/ml) that catalyses ATP. Cells were harvested after 6 hours and the expression of the indicated markers was assessed by FACS.

DC [2] = assay: Oxygen consumption rate (OCR) of DC; assay type: cell-based, mouse; conditions: 2 h activation; oATP with or without LPS co-treatment
Method: Mitochondria oxygen consumption rate (OCR) was measured by using a YSI 5300 Clark-type electrode (Yellow Springs Instrument, Yellow Springs, Ohio, USA) or the XF24 Extracellular Flux Analyzer (Seahorse Bioscience, Billerica, Mass.) following the manufacturer's protocol. Primary cultured DC (10^6 cells/well) were used as described in the experiments.
The effect of the activation of DC on the O2 consumption rate (OCR) was tested to attempt to correlate increased OCR with increased immunogenicity.
(§1) The effect of direct inhibition of mitochondrial respiration, by an inhibitor of mitochondrial respiratory complex I, rotenone, was tested. […] Control DC were treated with LPS without OVA pulsing. T cell proliferation was analyzed by CFSE dilution on D3.

DC [3] = test system: DC
DC [4] = assay: DC immunogenicity: OT-II T cell proliferation by CFSE dilution; assay type: cell-based, mouse; conditions: LPS plus 1 mM rotenone; CFSE dilution on D3
Method: as §1

DC [5] = assay: Ex vivo Treg differentiation: Foxp3 induction in Tn by treated DC; assay type: cell-based, mouse

Compound	DC maturation (expression of markers) (DC [1])	OCR of DC (DC [2])	further results
NC(=O)c1ncn([C@@H]2O[C@H](CO)[C@@H](O)[C@H]2O)c1N [AICAR, 5-aminoimidazole-4-carboxamide-1-β-4-ribofuranoside]	block DC maturation	–	–
Nc1ncnc2c1ncn2[C@@H]1O[C@H](COP(=O)(O)OP(=O)(O)OP(=O)(O)O)[C@@H](O)[C@H]1O [ATP, adenosine triphosphate]	–	enhanced OCR levels in DCs	–
C=C(C)[C@H]1Cc2c(ccc3c2O[C@@H]2COc4cc(OC)c(OC)cc4[C@@H]2C3=O)O1 [rotenone]	–	–	toxicity to DC (maturation markers CD80, C86, MHC-II and migration to CCL21) (DC [3]): not toxic to DC; T cell proliferation induced by antigen pulsed, LPS matured DC (DC [4]): induced much less T cell proliferation
Periodate-oxidized ATP [oATP]	block DC maturation	reduced OCR	capacity to imprint DC with tolerogenic potential (percentages of Foxp3 and CD25 expressing cells) (DC [5]; DC incubated 2 hours, oATP 100 μM, 5 days in coculture): significantly imprints DC with tolerogenic potential; tolerogenic capacity compared with the combination of rapamycin and TGFβ (DC [5]; oATP 100 μM vs rapamycin 10 nM and TGFβ 2 ng/ml): matches or exceeds
